Assay [1] concerns the target purified recombinant c-Met kinase domains (Homo sapiens, UniProt P08581). As to the kind of experiment: Biochemical kinase assay.
A further assay has as its target c-Met (Homo sapiens, UniProt P08581). The format is cell-based.

From paper PMC7267738 (iScience, 2020) come the findings set out here.

Chain of purified recombinant c-Met kinase domains (P08581 1078-1345 limits assumed): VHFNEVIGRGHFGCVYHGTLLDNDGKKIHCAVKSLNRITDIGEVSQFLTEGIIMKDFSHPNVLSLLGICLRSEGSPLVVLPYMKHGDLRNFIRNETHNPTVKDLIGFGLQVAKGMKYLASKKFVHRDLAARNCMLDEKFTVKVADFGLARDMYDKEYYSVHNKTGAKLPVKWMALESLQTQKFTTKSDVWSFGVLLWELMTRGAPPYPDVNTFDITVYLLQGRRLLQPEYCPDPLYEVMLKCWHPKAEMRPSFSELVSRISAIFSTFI
Chain of c-Met (P08581 25-1390): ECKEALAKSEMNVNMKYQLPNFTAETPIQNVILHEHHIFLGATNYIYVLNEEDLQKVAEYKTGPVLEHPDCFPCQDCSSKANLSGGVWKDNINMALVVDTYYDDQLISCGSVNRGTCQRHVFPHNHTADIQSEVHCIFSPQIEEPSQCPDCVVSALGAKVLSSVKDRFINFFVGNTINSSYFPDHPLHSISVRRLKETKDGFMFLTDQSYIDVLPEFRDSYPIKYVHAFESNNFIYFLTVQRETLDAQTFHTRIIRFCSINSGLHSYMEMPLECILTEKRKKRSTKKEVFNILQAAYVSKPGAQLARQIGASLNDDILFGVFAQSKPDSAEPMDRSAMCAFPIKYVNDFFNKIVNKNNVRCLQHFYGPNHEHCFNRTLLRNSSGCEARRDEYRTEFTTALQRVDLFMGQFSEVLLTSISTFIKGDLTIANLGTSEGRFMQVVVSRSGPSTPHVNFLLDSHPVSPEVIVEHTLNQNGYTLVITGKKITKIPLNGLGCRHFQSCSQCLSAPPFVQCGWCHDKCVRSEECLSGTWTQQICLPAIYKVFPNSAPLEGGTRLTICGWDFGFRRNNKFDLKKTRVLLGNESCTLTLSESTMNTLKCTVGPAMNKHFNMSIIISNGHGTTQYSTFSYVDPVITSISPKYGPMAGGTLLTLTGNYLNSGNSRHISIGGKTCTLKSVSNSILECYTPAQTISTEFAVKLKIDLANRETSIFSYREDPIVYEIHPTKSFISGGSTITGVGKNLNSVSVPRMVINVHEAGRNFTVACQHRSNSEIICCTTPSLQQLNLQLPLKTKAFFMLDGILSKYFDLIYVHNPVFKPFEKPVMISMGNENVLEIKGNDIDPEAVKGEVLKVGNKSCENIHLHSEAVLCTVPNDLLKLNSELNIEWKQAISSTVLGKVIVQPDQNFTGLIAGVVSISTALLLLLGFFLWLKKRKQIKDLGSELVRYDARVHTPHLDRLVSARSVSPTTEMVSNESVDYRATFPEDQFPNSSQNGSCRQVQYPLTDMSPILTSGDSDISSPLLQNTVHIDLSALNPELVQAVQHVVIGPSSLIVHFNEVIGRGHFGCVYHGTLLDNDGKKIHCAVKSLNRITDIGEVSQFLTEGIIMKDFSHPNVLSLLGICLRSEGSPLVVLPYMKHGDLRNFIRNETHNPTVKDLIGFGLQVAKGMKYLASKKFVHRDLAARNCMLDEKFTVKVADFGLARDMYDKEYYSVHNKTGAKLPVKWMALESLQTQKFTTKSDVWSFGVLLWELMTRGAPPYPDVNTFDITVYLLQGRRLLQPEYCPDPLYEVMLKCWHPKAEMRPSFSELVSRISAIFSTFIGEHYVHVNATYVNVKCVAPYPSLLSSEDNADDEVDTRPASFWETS

On to `COc1cc2ncnc(Oc3ccc(Nc4nccc5[nH]cc(-c6ccc(C(F)(F)F)cc6)c(=O)c45)cc3F)c2cc1OC` [Compound 5d], for which the IC50 in assay [1] is 0.0403 µM; on c-Met, 25 µM.
